The record followed here is patent US9096593B2, “Compounds and methods for kinase modulation, and indications therefor” (Plexxikon Inc., priority 2009, dated 2015).

Read-outs that look alike come from different tables or passages of the source.

One experiment deals with BCR-KIT/BaF3 cells (Homo sapiens, UniProt P10721). The experiment in a line: BCR-KIT/BaF3 cell proliferation assay (ATPlite). It counts as cell-based. The following applies: read-out: BCR/BaF3 (IC50 μM) Kit. The method, boiled down: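 BCR-KIT/BaF3 cells plated at 10,000/well in G418-containing medium without IL-3/WEHI; MV-4-11 at 25,000/well in medium with 10% FBS. Compound given as 8-point 1:3 titration, top 10 μM final, 3 days at 37 °C. Viability read as ATPlite luminescence; IC50 from concentration curve.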
BCR-KIT/BaF3 cells, sequence (P10721 26-976 limits assumed, change not shown): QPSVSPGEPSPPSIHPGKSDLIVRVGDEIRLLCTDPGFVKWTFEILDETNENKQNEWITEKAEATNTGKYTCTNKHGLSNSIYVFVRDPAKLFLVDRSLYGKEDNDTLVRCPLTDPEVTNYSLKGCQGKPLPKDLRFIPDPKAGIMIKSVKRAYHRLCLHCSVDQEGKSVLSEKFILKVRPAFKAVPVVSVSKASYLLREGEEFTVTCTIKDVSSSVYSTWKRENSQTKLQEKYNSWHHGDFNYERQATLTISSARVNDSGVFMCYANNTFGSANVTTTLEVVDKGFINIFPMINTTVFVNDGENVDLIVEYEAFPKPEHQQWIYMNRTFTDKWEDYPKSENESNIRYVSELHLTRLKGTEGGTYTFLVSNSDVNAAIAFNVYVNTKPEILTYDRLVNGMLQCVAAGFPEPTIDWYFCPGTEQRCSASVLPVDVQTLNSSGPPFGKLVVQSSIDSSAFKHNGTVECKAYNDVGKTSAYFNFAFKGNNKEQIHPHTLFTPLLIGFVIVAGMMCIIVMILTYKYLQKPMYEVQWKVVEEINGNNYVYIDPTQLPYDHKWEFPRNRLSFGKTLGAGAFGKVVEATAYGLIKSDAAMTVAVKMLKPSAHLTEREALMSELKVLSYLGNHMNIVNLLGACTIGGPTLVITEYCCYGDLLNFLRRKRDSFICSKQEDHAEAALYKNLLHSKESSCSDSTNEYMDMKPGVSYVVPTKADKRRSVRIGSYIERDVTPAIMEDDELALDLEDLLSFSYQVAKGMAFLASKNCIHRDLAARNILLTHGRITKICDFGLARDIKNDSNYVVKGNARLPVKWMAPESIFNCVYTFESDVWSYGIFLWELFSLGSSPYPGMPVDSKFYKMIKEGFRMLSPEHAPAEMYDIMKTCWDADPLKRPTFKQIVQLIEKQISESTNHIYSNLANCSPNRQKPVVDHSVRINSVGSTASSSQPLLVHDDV

For another experiment, the target named is BCR-FMS/BaF3 cells (Homo sapiens, UniProt P07333). The experiment in a line: BCR-FMS/BaF3 cell proliferation assay (ATPlite). The experiment is classed as cell-based. In a few lines:
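Proliferation read by ATPlite luminescence after 3 days' exposure (37 °C, 5% CO2) to compound in 1:3 dilutions, eight points, maximum 10 μM final, DMSO control.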

Setting [1] is: BCR-FMS/BaF3 cells; read-out: BCR/BaF3 (IC50 μM) Fms.
Where [2] appears, read: Kit IC50/Fms IC50, BCR-KIT/BaF3 vs BCR-FMS/BaF3 cells.
Setting [3] is: read-out: BCR/BaF3 (IC50 μM) Fms; BCR-FMS/BaF3 cells.

BCR-FMS/BaF3 cells, sequence (P07333 20-972 limits assumed, change not shown): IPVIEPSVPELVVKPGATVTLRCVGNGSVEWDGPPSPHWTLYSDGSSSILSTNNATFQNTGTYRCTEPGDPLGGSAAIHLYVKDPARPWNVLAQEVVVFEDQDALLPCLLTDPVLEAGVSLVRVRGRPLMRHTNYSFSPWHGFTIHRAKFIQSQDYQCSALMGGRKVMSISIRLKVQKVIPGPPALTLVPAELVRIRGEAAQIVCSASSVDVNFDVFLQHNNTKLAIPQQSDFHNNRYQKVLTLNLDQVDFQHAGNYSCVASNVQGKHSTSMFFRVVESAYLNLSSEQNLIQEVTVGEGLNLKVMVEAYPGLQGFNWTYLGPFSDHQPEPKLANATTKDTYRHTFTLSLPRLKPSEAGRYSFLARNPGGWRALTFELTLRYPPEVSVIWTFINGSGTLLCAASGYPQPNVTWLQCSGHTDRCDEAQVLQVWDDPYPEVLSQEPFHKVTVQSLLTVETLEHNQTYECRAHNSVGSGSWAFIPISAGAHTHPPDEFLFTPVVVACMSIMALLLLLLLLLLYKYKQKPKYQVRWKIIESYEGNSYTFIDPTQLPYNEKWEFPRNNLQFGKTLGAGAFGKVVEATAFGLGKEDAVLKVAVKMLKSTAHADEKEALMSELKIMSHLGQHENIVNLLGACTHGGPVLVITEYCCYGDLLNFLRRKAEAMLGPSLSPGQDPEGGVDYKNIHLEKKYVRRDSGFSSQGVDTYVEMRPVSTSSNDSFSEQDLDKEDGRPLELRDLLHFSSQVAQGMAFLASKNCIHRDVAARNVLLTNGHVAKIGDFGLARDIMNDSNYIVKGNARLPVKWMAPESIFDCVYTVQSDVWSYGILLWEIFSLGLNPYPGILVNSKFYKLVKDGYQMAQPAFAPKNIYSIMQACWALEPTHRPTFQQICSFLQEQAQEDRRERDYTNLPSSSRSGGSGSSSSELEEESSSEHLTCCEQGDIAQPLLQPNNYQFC

On to `COc1cccc(CNc2ncc(Cc3c[nH]c4ncc(Cl)cc34)s2)n1` [Compound P-2163, [5-(5-Chloro-1H-pyrrolo[2,3-b]pyridin-3-ylmethyl)-thiazol-2-yl]-(6-methoxy-pyridin-2-ylmethyl)-amine], for which the IC50 is more than 0.1 µM on BCR-KIT/BaF3 cells and less than 0.1 µM at BCR-FMS/BaF3 cells (setting [1]). The “BCR/BaF3 selectivity (Kit IC50/Fms IC50)” value at BCR-FMS/BaF3 cells (setting [2]) is recorded as less than 20.
Consider `COc1ncc(CNc2ccc(Cc3c[nH]c4ncc(Cl)cc34)c(F)n2)cc1F` [Compound P-2165, [5-(5-Chloro-1H-pyrrolo[2,3-b]pyridin-3-ylmethyl)-6-fluoro-pyridin-2-yl]-(5-fluoro-6-methoxy-pyridin-3-ylmethyl)-amine], for which the IC50 at BCR-KIT/BaF3 cells was more than 0.1 µM; at BCR-FMS/BaF3 cells (setting [3]), less than 0.1 µM; at BCR-FMS/BaF3 cells (read-out: Cell based (IC50 μM) BCR/BaF3 (Fms); BCR-FMS/BaF3 cells, 3 days), less than 0.1 µM. Also, the “BCR/BaF3 selectivity (Kit IC50/Fms IC50)” value at BCR-FMS/BaF3 cells (setting [2]) is more than 20.
For the molecule `Fc1cc(Cc2c[nH]c3ncc(Cl)cc23)cnc1NCc1ccc(C(F)(F)F)nc1` [Compound P-2172, [5-(5-Chloro-1H-pyrrolo[2,3-b]pyridin-3-ylmethyl)-3-fluoro-pyridin-2-yl]-(6-trifluoromethyl-pyridin-3-ylmethyl)-amine], the IC50 on BCR-KIT/BaF3 cells and on BCR-FMS/BaF3 cells (setting [1]) was less than 0.1 µM throughout. Further, on BCR-FMS/BaF3 cells (setting [2]), the “BCR/BaF3 selectivity (Kit IC50/Fms IC50)” value is less than 20.
Consider `Fc1cncc(CNc2ncc(Cc3c[nH]c4ncc(Cl)cc34)cn2)c1` [Compound P-2176, [5-(5-Chloro-1H-pyrrolo[2,3-b]pyridin-3-ylmethyl)-pyrimidin-2-yl]-(5-fluoro-pyridin-3-ylmethyl)-amine], for which the IC50 was more than 0.1 µM at BCR-KIT/BaF3 cells and less than 0.1 µM at BCR-FMS/BaF3 cells (setting [3]). For the same molecule, the “BCR/BaF3 selectivity (Kit IC50/Fms IC50)” value at BCR-FMS/BaF3 cells (setting [2]) was more than 20.
Consider `CCS(=O)(=O)Nc1ccccc1CNc1ccc(Cc2c[nH]c3ncc(C)cc23)c(F)n1` [Compound P-2198, Ethanesulfonic acid (2-{[6-fluoro-5-(5-methyl-1H-pyrrolo[2,3-b]pyridin-3-ylmethyl)-pyridin-2-ylamino]-methyl}-phenyl)-amide], for which the results for the IC50 at BCR-KIT/BaF3 cells and on BCR-FMS/BaF3 cells (setting [3]) were more than 0.1 µM and less than 0.1 µM, respectively. Besides, on BCR-FMS/BaF3 cells (setting [2]), the “BCR/BaF3 selectivity (Kit IC50/Fms IC50)” value was less than 20.
In the case of `CCS(=O)(=O)Nc1cc(F)cc(CNc2ccc(Cc3c[nH]c4ncc(C)cc34)c(F)n2)c1` [Compound P-2202, Ethanesulfonic acid (3-fluoro-5-{[6-fluoro-5-(5-methyl-1H-pyrrolo[2,3-b]pyridin-3-ylmethyl)-pyridin-2-ylamino]-methyl}-phenyl)-amide], the figures for the IC50 on BCR-KIT/BaF3 cells and at BCR-FMS/BaF3 cells (setting [1]) were more than 0.1 µM and less than 0.1 µM, respectively. Moreover, the “BCR/BaF3 selectivity (Kit IC50/Fms IC50)” value at BCR-FMS/BaF3 cells (setting [2]) is recorded as less than 20.
